This note sets out measurements from patent US20140137294A1, “GLUCOSINOLATE TRANSPORTER PROTEIN AND USES THEREOF” (UNIVERSITY OF COPENHAGEN, priority 2010, published 2014).

Holding throughout (assay type): cell-based
Test [1] has as its target T1, AtGTR2 (Arabidopsis thaliana, UniProt Q9LV10).
T1 construct: expressed in transfected cells; host or cells: Xenopus oocytes injected with in vitro transcribed cRNA (vector pNB1u)
T1 sequence (Q9LV10 1-616): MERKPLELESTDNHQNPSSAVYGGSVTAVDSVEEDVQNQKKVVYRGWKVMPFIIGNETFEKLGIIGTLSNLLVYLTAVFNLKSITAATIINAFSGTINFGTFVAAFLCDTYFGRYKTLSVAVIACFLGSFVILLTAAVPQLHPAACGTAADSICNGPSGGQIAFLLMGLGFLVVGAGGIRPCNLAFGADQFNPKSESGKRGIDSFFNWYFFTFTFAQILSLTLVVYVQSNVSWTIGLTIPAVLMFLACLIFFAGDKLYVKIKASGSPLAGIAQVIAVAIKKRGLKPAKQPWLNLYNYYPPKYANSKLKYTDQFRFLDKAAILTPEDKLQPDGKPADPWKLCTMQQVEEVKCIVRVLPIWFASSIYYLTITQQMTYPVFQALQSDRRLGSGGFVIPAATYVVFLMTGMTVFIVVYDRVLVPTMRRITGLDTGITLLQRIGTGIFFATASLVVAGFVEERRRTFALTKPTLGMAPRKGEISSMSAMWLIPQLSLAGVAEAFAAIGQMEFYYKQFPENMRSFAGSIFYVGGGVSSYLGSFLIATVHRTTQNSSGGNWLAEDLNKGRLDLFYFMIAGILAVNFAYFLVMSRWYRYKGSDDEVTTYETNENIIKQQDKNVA
As to the kind of experiment: Glucosinolate uptake by AtGTR2 expressing oocytes, LC-MS analysis of oocyte extracts. Particulars: data not shown.

Test [2] deals with T1, AtGTR2. Kind of test: Substrate-induced currents in voltage-clamped Xenopus oocytes expressing AtGTR2. Here is the method:
FIG. 3: Biochemical analysis of AtGTR1 and 2 mediated GSL transport in Xenopus oocytes. A and B, pH dependence of AtGTR-mediated GSL transport. A, AtGTR2 mediated 4-MTB uptake measured by LC-MS analysis of oocyte extracts, n=3 oocytes. B, AtGTR1 currents induced by 1 mM 4-MTB were measured at different membrane potentials at pH 5 ([…]), pH 6 (♦), and pH 7 (▴). Currents were normalized to the current induced at pH 5 at −60 mV, error bars are SD, n=4 oocytes. C and D, kinetic analysis of AtGTR-mediated glucosinolate transport. Normalized glucosinolate dependent currents at a membrane potential of −60 mV are plotted against 4-MTB concentrations, line indicates a fit of the Michaelis-Menten equation to the data; error bars are SD. For AtGTR1 (n=6 oocytes); For AtGTR2 (n=5 oocytes). Each oocyte-dataset were normalized to current elicited at 100 μM 4-MTB. E and F, substrate specificity of AtGTRs. E, AtGTR1 and AtGTR2 uptake of 0.04 mM C-14 labeled pOHBG at pH 5 in the presence of 2 mM 4-MTB, 2 mM NO3^−, 2 mM glucose+2 mM SO4^−−, or a solution of 2 mM Ala-His+2 mM Asp-Ala+2 mM Gly-Leu+2 mM Ala-Phe+2 mM Gly-Glu+2 mM Gly-Gly-Gly, error bars are SD, n=8 oocytes. F, AtGTR1 currents induced by endogenous and exogenous glucosinolates, representative positive, negative and neutral dipeptides and two tripeptides Currents were normalized to the current induced by 100 μM 4-MTB at pH 5 clamped at −60 mV, error bars are SD, n=4 oocytes.
When current recordings were performed on oocytes expressing, respectively, AtGTR1 and AtGTR2 exposed to 100 μM 4-MTB at pH 5 and voltage clamped at −50 mV elicited inward currents in the 30 nA range. This indicates a net influx of positive ions through the AtGTRs upon exposure to GSLs. GSL-induced inward currents were voltage dependent increasing with hyperpolarizing membrane potential within the range of +30 to −120 mV (FIGS. 3B and F). […] This observation was also noticeable in substrate dependent transport rates measured by direct LC-MS detection of GSL uptake.

A further test deals with T2, AtGTR1 (Arabidopsis thaliana, UniProt Q944G5).
T2 construct: A library of Arabidopsis transporters available as full length cDNAs from the RIKEN bioresource center; expressed in transfected cells; host or cells: Xenopus oocytes injected with in vitro transcribed cRNA
T2 sequence (Q944G5 31-636 limits assumed): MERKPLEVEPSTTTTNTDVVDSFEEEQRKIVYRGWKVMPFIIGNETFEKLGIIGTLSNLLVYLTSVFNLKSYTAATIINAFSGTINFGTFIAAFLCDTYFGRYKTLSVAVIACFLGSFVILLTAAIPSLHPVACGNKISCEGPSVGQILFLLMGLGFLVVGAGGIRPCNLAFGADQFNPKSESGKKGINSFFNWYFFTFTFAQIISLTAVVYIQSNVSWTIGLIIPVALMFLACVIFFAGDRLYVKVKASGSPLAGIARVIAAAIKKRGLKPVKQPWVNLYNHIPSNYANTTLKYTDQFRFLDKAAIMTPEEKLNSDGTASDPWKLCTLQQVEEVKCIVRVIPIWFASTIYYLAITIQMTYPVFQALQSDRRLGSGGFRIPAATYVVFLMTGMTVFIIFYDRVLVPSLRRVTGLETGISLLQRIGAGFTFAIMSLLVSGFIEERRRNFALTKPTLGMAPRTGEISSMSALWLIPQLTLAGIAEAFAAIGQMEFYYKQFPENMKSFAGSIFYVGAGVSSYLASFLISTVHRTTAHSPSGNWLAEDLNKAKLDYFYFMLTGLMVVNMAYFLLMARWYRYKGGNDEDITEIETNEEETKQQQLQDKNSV
As to the kind of experiment: Substrate-induced currents in voltage-clamped Xenopus oocytes expressing AtGTR1. The note with it: AtGTR1.

Broadly, the Km is the substrate concentration at which the rate is half of its maximum. `CSCCCC/C(=N/OS(=O)(=O)O)S[C@@H]1O[C@H](CO)[C@@H](O)[C@H](O)[C@H]1O` [4-MTB, 4-methylthiobutyl glucosinolate]: the “uptake by AtGTR2 measured by LC-MS analysis of oocyte extracts” value at AtGTR2 [1] is “took up”. Also, the inward current at AtGTR2 [2] (100 μM substrate, pH 5, voltage clamped at −50 mV, AtGTR2) is roughly 30 nA; on AtGTR1 (100 μM substrate, pH 5, voltage clamped at −50 mV), roughly 30 nA. Moreover, at AtGTR2 [2] (AtGTR2, 500 μM 4-MTB), the “substrate dependent transport rate at 500 μM, lower than at 250 μM and 1 mM” value was 25%. Moreover, the Km at AtGTR2 [2] (pH 5, clamped at −60 mV, Michaelis-Menten, AtGTR2) turned out to be 18.7 ± 4.2 µM; at AtGTR1 (pH 5, clamped at −60 mV, Michaelis-Menten) it was 20 ± 1.2 µM.
